In patent US11339128B2 (Firmenich Incorporated, priority 2014, dated 2022):

Molecular target: T1, T1R2/T1R3 taste receptor (Homo sapiens, UniProt Q7RTX0+Q8TE23)
T1 sequence (Q8TE23 20-839): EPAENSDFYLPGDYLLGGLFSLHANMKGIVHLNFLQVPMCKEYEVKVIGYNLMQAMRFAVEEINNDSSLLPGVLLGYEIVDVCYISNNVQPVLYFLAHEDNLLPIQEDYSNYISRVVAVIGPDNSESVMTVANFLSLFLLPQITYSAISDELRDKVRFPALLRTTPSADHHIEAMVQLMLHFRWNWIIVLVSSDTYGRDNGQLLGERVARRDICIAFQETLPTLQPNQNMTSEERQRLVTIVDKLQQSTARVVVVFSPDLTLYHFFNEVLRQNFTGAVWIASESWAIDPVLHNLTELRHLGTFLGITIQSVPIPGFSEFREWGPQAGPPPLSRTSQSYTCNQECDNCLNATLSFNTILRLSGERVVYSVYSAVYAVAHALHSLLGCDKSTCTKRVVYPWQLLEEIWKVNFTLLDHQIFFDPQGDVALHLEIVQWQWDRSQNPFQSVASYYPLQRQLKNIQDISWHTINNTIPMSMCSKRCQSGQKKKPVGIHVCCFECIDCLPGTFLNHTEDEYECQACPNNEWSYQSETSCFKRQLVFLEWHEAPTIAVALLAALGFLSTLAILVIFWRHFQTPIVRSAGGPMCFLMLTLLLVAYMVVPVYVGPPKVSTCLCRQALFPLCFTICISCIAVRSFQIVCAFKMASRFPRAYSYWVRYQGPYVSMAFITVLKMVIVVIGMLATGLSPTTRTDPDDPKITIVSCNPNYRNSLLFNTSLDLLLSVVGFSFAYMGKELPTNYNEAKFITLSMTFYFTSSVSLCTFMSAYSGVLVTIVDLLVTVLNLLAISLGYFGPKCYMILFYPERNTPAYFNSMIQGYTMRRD
T1 sequence (Q7RTX0 21-852): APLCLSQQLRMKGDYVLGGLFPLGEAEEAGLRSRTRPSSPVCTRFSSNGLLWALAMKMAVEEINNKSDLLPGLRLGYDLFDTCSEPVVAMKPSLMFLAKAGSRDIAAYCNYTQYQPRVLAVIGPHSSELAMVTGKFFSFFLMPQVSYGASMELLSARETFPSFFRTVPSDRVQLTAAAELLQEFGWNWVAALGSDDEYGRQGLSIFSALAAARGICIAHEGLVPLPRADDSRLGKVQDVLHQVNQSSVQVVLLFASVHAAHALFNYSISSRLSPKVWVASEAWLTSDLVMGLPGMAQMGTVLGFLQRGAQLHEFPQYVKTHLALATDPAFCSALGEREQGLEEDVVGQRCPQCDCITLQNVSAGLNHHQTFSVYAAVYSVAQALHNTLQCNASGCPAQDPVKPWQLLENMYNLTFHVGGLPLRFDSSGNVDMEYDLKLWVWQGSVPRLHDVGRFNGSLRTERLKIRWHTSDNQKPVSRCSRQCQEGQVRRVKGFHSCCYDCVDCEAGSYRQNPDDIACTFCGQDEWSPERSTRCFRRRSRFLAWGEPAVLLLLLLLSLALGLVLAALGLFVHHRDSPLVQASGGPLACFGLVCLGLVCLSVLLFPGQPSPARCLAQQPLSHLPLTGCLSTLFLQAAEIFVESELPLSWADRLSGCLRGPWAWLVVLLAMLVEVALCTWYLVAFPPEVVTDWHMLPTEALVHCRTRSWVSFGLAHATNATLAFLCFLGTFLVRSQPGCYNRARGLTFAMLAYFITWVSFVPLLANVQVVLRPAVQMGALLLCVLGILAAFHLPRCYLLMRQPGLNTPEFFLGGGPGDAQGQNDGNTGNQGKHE
Assay: Receptor-based assay: sweetener EC50 enhancement ratio with and without test compound
Format: cell-based
Conditions: for Sucrose Enhancement EC50 Ratio: sweetener sucrose; for Sucralose Enhancement EC50 Ratio: sweetener sucralose; for Fructose Enhancement EC50 Ratio: sweetener fructose
Method: Potencies (EC50 values) for the sweeteners sucrose, sucralose, and fructose were measured against the T1R2/T1R3 taste receptor. EC50 was determined using the sweetener alone and in the presence of 1 μM, 3 μM, 10 μM, or 50 μM of test compound. EC50 ratios were calculated by the ratio of potency with and without the test compound. An “A” value indicates an enhancement ratio of greater than 1 and less than 10. A “B” value indicates an enhancement ratio from 10 to 20. A “C” value indicates an enhancement ratio greater than 20.

Row | SMILES | Sucrose Enhancement EC50 Ratio (1 μM test compound) | Sucralose Enhancement EC50 Ratio (3 μM test compound) | Sucrose Enhancement EC50 Ratio (3 μM test compound) | Fructose Enhancement EC50 Ratio (10 μM test compound) | Sucralose Enhancement EC50 Ratio (10 μM test compound) | Sucrose Enhancement EC50 Ratio (10 μM test compound) | Fructose Enhancement EC50 Ratio (50 μM test compound)
1 | COc1ccnc(N[C@H]2CC[C@H](Oc3cccc4nc(C)c(C(=O)O)c(N)c34)CC2)n1 [Compound 707] | A (an enhancement ratio of greater than 1 and less than 10) | A (an enhancement ratio of greater than 1 and less than 10) | A (an enhancement ratio of greater than 1 and less than 10) | A (an enhancement ratio of greater than 1 and less than 10) | B (an enhancement ratio from 10 to 20) | B (an enhancement ratio from 10 to 20) | A (an enhancement ratio of greater than 1 and less than 10)
2 | CCOCC(=O)N[C@H]1CC[C@H](Oc2cccc3nc(CC)c(C(=O)O)c(N)c23)CC1 [Compound 322] | A (an enhancement ratio of greater than 1 and less than 10) | – | A (an enhancement ratio of greater than 1 and less than 10) | – | – | – | –
3 | Cc1nc2cccc(O[C@H]3CC[C@H](Nc4ncc(F)cn4)CC3)c2c(N)c1C(=O)O [Compound 704] | A (an enhancement ratio of greater than 1 and less than 10) | B (an enhancement ratio from 10 to 20) | A (an enhancement ratio of greater than 1 and less than 10) | A (an enhancement ratio of greater than 1 and less than 10) | B (an enhancement ratio from 10 to 20) | B (an enhancement ratio from 10 to 20) | A (an enhancement ratio of greater than 1 and less than 10)
4 | CCOC(C)C(=O)N[C@H]1CC[C@H](Oc2cccc3nc(C)c(C(=O)O)c(N)c23)CC1 (some centres unmarked) [Compound 315] | B (an enhancement ratio from 10 to 20) | – | B (an enhancement ratio from 10 to 20) | – | – | C (an enhancement ratio greater than 20) | –
5 | CCc1cnc(N[C@H]2CC[C@H](Oc3cccc4nc(C)c(C(=O)O)c(N)c34)CC2)nc1 [Compound 711] | A (an enhancement ratio of greater than 1 and less than 10) | B (an enhancement ratio from 10 to 20) | A (an enhancement ratio of greater than 1 and less than 10) | A (an enhancement ratio of greater than 1 and less than 10) | B (an enhancement ratio from 10 to 20) | B (an enhancement ratio from 10 to 20) | A (an enhancement ratio of greater than 1 and less than 10)
6 | CCCc1cnc(N[C@H]2CC[C@H](Oc3cccc4nc(C)c(C(=O)O)c(N)c34)CC2)nc1 [Compound 706] | A (an enhancement ratio of greater than 1 and less than 10) | A (an enhancement ratio of greater than 1 and less than 10) | A (an enhancement ratio of greater than 1 and less than 10) | A (an enhancement ratio of greater than 1 and less than 10) | B (an enhancement ratio from 10 to 20) | B (an enhancement ratio from 10 to 20) | A (an enhancement ratio of greater than 1 and less than 10)
7 | COCC(=O)N[C@H]1CC[C@H](Oc2cccc3nc(C)c(C(=O)O)c(N)c23)CC1 [Compound 304] | A (an enhancement ratio of greater than 1 and less than 10) | – | B (an enhancement ratio from 10 to 20) | – | – | A (an enhancement ratio of greater than 1 and less than 10) | –
8 | Cc1nc2cccc(O[C@H]3CC[C@H](NC(=O)CN4CCCC4)CC3)c2c(N)c1C(=O)O [Compound 323] | A (an enhancement ratio of greater than 1 and less than 10) | – | A (an enhancement ratio of greater than 1 and less than 10) | – | – | – | –
